PMC12040169 (PLOS Biology, 2025)

Assay: in vitro
Conditions: human, hela cells, % viability

| SMILES | viability at 28.5 h, 10 µM |
| --- | --- |
| O=S(=O)(c1ccc(Br)s1)N1CCC(Cc2ccccc2)CC1 [CBK043580] | 89.7% |
| COc1ccccc1-c1ccc(NC(=O)C2(c3cccc(F)c3)CCOCC2)cc1 [CBK285747] | 103% |
| Cn1cc(CNS(=O)(=O)c2ccc(Br)c(F)c2)cn1 [CBK305539] | 87.7% |
| O=C1c2ccccc2CN1c1ccc(OC(F)(F)F)cc1 [CBK113237] | 91.3% |
| O=C(Nc1ccc(Cl)cc1)N1CCCC(CO)C1 (centres unmarked) [CBK156047] | 112% |
| CCN(C(=O)c1cn2c3c(cccc3c1=O)CC2)C1CCOC(C)(C)C1 (centres unmarked) [CBK307332] | 90.1% |
| O=C(Cc1c[nH]c2ccccc12)N1CCC2(CCCN(C(=O)c3c(F)cccc3F)C2)C1 (centres unmarked) [CBK131605] | 85.8% |
| Cc1ccc(C#N)cc1S(=O)(=O)NC(=O)CC1CCOc2ccccc21 (centres unmarked) [CBK306476] | 85.5% |
| Cc1ncccc1C(=O)N1CCC(F)CC1 [CBK200398] | 85.4% |
| CNC(=O)C1(Cc2ccccc2-c2cccs2)CCN(C(=O)Cc2ccccc2)CC1 [CBK285746] | 90.8% |
| Nc1ncnc2c1nc1n2[C@@H]2O[C@@H]([C@H](O)C2O)[C@H]1O (some centres unmarked) [CBK201305] | 98.1% |
| O=C(O)CC(NCc1ccccc1)C(=O)Nc1ccccc1Br (centres unmarked) [CBK267118] | 98% |
| C=CCn1c(SCC(=O)Nc2cc(Cl)ccc2O)nnc1-c1ccccc1O [CBK269102] | 100% |
| O=C(c1ccc(-c2cncc(-c3ccc(O)cc3)n2)cc1Cl)N1CCOCC1 [CBK123790] | 94% |
| Cn1nnnc1SCCNC(=O)Nc1ccc(CN2CCOCC2)cc1 [CBK307084] | 97.4% |
| Cn1cc(C(=O)OCc2cccc(S(=O)(=O)N3CCOCC3)c2)cn1 [CBK305721] | 88.1% |
| Cc1ccc(S(=O)(=O)NCC(=O)O)c2nsnc12 [CBK261140] | 93.1% |
| CS(=O)(=O)c1ccc2ncnc(NCC(CO)Cc3ccccn3)c2c1 (centres unmarked) [CBK306493] | 88.7% |
| O=C(CN1Cc2ccccc2C1)N1CCCC1c1nc2ccccc2[nH]1 (centres unmarked) [CBK283710] | 87.9% |
| COc1ccnc(N2CCC(Oc3cccnc3N(C)C)C2)n1 (centres unmarked) [CBK304699] | 92.4% |
| CCOc1ccc(NC(=O)c2ccc(S(=O)(=O)N(C)C)cc2)c([N+](=O)[O-])c1 [CBK263396] | 90.6% |
| Cc1cc(Cl)cc(C)c1OCCN1CCNCC1 [CBK266057G] | 84.4% |

| SMILES | viability at 28.5 h, 10 µM |
| --- | --- |
| COc1ccc(NS(=O)(=O)c2cc(C(=O)O)cc(C)c2C)cc1OC [CBK295148] | 82.9% |
| CC(C)(CO)CNc1cncc(-c2ccc(O)cc2)n1 [CBK065386] | 113% |
| O=C1NC/C=C/CC2(CCN(C(=O)CCc3cccnc3)CC2)C(=O)NCCOc2ccccc21 [CBK292007] | 88.3% |
| COc1ccc2c(c1)CCN=C2C[C@H]1CN(C(=O)C(C)(C)C)CC[C@H]1CC(=O)O [CBK289155] | 92.5% |
| Oc1c(C(c2ccccc2)N2CCc3ccccc3C2)sc2ncnn12 (centres unmarked) [CBK287612] | 99.9% |
| CCN(CC)CCn1c(-c2ccccc2)c(OCCO)c2ccccc2c1=O [CBK010078] | 96.9% |
| O=C(Nc1ccc(F)cc1)c1ccc(NS(=O)(=O)c2ccc(Br)cc2)cc1 [CBK050400] | 103% |
| COc1nccnc1-c1cnn(C)c1 [CBK107069] | 89.6% |
| Cc1ccc(CN(Cc2c[nH]cn2)C2CC(C)(C)NC(C)(C)C2)o1 [CBK283175] | 91% |
| C=CCn1ncc(CN(CCN(C)C)Cc2ccc(C)o2)c1C [CBK282846] | 81.3% |
| O=C(N/N=C/c1cc([N+](=O)[O-])ccc1Cl)c1ccc(O)c(O)c1 [CBK261599] | 112% |
| COc1nc(OCCNS(=O)(=O)c2ccc(C)cc2)nc(N(C)C)n1 [CBK266752] | 117% |
| O=C(NCC(F)(F)F)c1ccc(-c2ccccc2)nc1NCc1cccnc1 [CBK076551] | 95% |
| Cc1cc(Cl)ccc1OCCCC(=O)Nc1sc2c(c1C(N)=O)CCCCCC2 [CBK265390] | 94.8% |
| CN(C)CCCOC(=O)C(C)(c1ccccc1)c1ccccc1 [CBK265325C] | 118% |
| CSc1nc2n(n1)C(C)C1=C(CCCC1=O)N2 (centres unmarked) [CBK288169] | 108% |
| CC(=O)c1cccc(NC(=O)N(CCO)C2CCCc3ccccc32)c1 (centres unmarked) [CBK305195] | 83% |
| COc1ccccc1Oc1nnnn1-c1ccc(C(N)=O)cc1 [CBK267988] | 96% |
| Cc1ccc(OC(=O)CCC(=O)Nc2ccc(S(N)(=O)=O)cc2)cc1 [CBK264708] | 95.1% |
| CC(C)NC(=O)[C@H]1CN2CCC1C[C@@H]2Cn1cc(C2(O)CCCC2)nn1 (some centres unmarked) [CBK289090] | 103% |
| O=C(O)Cn1nnc(-c2ccc(C(=O)O)cc2)n1 [CBK267926] | 85% |
| O=C(c1cncnc1)N1CCc2ccccc21 [CBK200272] | 102% |

| SMILES | viability at 28.5 h, 10 µM |
| --- | --- |
| CN1CCN(Cc2nc3c([nH]2)c(=O)n(C)c(=O)n3C)CC1 [CBK269578] | 104% |
| COc1ccc(C(NC(=O)c2cccc(OC)c2)c2cc(Cl)c3cccnc3c2O)cc1 (centres unmarked) [CBK264027] | 90.7% |
| COc1cc(CCN2CCCCC2)c(C(C)n2cncn2)cc1OC (centres unmarked) [CBK023837G] | 90.3% |
| CN(c1ccccc1)C1CCN(c2nc3c(cnn3C)c(=O)[nH]2)CC1 [CBK305215] | 96.3% |
| O=C(NC1CCCCC1)c1ccccc1NC(=O)C1CCCCC1C(=O)O (centres unmarked) [CBK267675] | 97% |
| CC(C)OC(=O)c1cc2n(n1)C(C(F)(F)F)CC(c1cccs1)N2 (centres unmarked) [CBK307176] | 87.6% |
| S=C(NC1=NCCS1)Nc1ccccc1 [CBK016591] | 95.2% |
| Cc1ccc(C(=O)NCc2ccc3c(c2)CCO3)c(N2CCOCC2)n1 [CBK106202] | 88.8% |
| Cc1ccc(C(=O)CCC(=O)N2CCCC2c2ccc(F)cc2)cc1 (centres unmarked) [CBK297885] | 96.2% |
| CCc1ccccc1NC(=O)CN1CCCCC1C(=O)O (centres unmarked) [CBK287179] | 92.4% |
| Cc1[nH]c2ccccc2c1C(=O)CCC(=O)O [CBK260871] | 95.5% |
| CSc1nc(C)c(CCC(=O)N(C)Cc2c(C)nn(-c3ccccc3)c2C)c(=O)[nH]1 [CBK297925] | 84.5% |
| COc1ccc(Oc2nccnc2N2CCN(Cc3ccc([N+](=O)[O-])cc3)CC2)cc1OC [CBK083046T] | 86.4% |
| c1ccc2oc([C@H]3CCN(C4CCOCC4)C3)nc2c1 [CBK289388] | 92.3% |
| O=C(Nc1c(F)cccc1F)N(Cc1cc(F)cc(F)c1)CC1CCNCC1 [CBK049795] | 90.5% |
| CCC(C)NC(=O)c1ccccc1NS(=O)(=O)c1cc(C(=O)O)cs1 (centres unmarked) [CBK295652] | 108% |
| COc1ccc(-n2c3c(cc(C(=O)Nc4ccccc4Br)c2=O)C(=O)CCC3)cc1 [CBK293945] | 95.7% |
| CCOC(=O)CCCNC(=O)N1CCN(Cc2ccccc2)CC1 [CBK155664] | 89.2% |
| NC(=O)CN1CCCC2(CCCCc3ccccc3OCC(=O)NC2)C1 (centres unmarked) [CBK292058] | 106% |
| CN1CC(C(=O)NCC(c2ccccc2)N2CCCCCC2)CC1=O (centres unmarked) [CBK282008] | 105% |
| O=C(O)C1CCN(C(=O)CCC2CCCCC2)CC1 [CBK286804] | 89.3% |
| CCCn1nc(C)c(-c2cncn2CC(C)N2CCCCC2)c1C (centres unmarked) [CBK281802] | 95.7% |

| SMILES | viability at 28.5 h, 10 µM |
| --- | --- |
| COc1ccc(CN2CCN(S(=O)(=O)c3ccc(Cl)cc3)CC2)cc1OC [CBK264204G] | 104% |
| O=C(Nc1ccccc1Cl)C1CCCN1S(=O)(=O)c1ccc(F)cc1 (centres unmarked) [CBK110161] | 89.1% |
| Cc1noc(C)c1S(=O)(=O)Nc1cccc(C(=O)N2CCN(C)CC2)c1 [CBK038972] | 101% |
| COc1ccc(CC(=O)N2CCCCC2c2cc(-c3ccc(F)cc3)cc(C)n2)cc1OC (centres unmarked) [CBK285858] | 98.8% |
| O=C1C=C(O)CC(CCc2ccc(F)cc2)(CCc2ccc(F)cc2)O1 [CBK008148] | 92.7% |
| CNCCCC1(c2ccccc2)SC(C)(C)c2ccccc21 (centres unmarked) [CBK015933C] | 90.6% |
| COc1cccc(CCNC(=O)NC(=O)C2CCN(S(C)(=O)=O)CC2)c1 [CBK034860] | 99% |
| Cc1cc(-c2cc(C(=O)NN3CCN(C)CC3)c3cc(Cl)ccc3n2)c(C)s1 [CBK267738] | 102% |
| NS(=O)(=O)c1ccccc1Cl [CBK113172] | 98.1% |
| COc1ccccc1CN(C(=O)Nc1ccccc1Cl)C1CC1 [CBK298332] | 97.2% |
| O=C1CCC(=O)N1CCOc1nccnc1N1CCN(Cc2ccccc2F)CC1 [CBK084289] | 97.8% |
| CC(=O)Nc1ccc(CN2CCC[C@H]2c2nc(-c3ccnc(NS(C)(=O)=O)c3)no2)cc1 [CBK288888] | 109% |
| O=C(Nc1ccc(N2CCCCC2)c(F)c1)C1CC(=O)N(C2CC2)C1 (centres unmarked) [CBK281387] | 108% |
| c1ncn(C2CCCCC2)c1C1CCCCC1 [CBK016758] | 101% |
| O=C1CC(SCCc2nc3ccccc3[nH]2)C(=O)N1c1ccc(F)cc1 (centres unmarked) [CBK267500] | 88.8% |
| CCCSc1nnc(-c2c(Cl)c(CC)nn2C)s1 [CBK026135] | 104% |
| Cc1cc2nnc(SCC(=O)Nc3ccc4c(c3)OCO4)n2c2ccccc12 [CBK265926] | 82.8% |
| O=C1NCC2(C/C=C/CCOc3ccccc31)CCN(C(=O)CCN1CCCC1)CC2 [CBK292020] | 87.5% |
| COCCCNc1nc2c(-c3ccc(Cl)cc3)nnn2c2ccccc12 [CBK287770] | 96.3% |
| CCc1c(C)nc2ccccc2c1SC[C@H](NC(C)=O)C(=O)O [CBK153459T] | 99.2% |
| Cc1ccc(C(=O)C(OC(=O)CN2C(=O)c3cccc([N+](=O)[O-])c3C2=O)c2ccccc2)cc1C (centres unmarked) [CBK265519] | 109% |
| Cc1cc(-c2cn(C)nc2C2CCCN2C(=O)CC(C)(C)C)on1 (centres unmarked) [CBK283453] | 87.3% |

Same assay, conditions: human, hela cells, % viability, bulk resorufin, single well

| SMILES | viability at 28.5 h, 10 µM |
| --- | --- |
| O=C(O)CCC(=O)OC1N=C(c2ccccc2Cl)c2cc(Br)ccc2NC1=O (centres unmarked) [CBK263076] | 85.2% |
